Laboratory results as given in US9237749B2, “Antimicrobial combinations of pyrion compounds with polyethyleneimines” (Janssen Pharmaceutica N.V., priority 2010, dated 2016).
Where two headings read alike, the source gives them in different places.

Experiments:
Assay in all cases: Poison Plate Assay
Type in all cases: cell-based
[1] = tested on: Aspergillus niger CBS554.65; conditions: CBS554, 336 h, read-out: MIC-values in ppm
Protocol: (§1) • Name of component: sodium pyrithione (I-a) • PEI 1300 (II-a) having an average molecular weight of approximately 1300 • PEI 70000 (II-b) having an average molecular weight of approximately 70000 • PEI 750000 (II-c) having an average molecular weight of approximately 750000 • Test models: Fungi: to each well of a 24-well microtiter plate, 1000 μl of a rich (Potato Dextrose Agar, PDA: 4 g potato infusion, 20 g bacto dextrose and 15 g bacto agar in 1 liter deionised water) containing the appropriate combination of the test compounds in one of the concentrations of a dose series is added. The nutrient medium is inoculated with the test fungi by adding a spore/mycelium suspension (10 μl) or a small piece of agar from the margin of an actively growing colony and incubated under dark at 27° C. with 70% relative humidity. The growth of the fungi is evaluated after two weeks. • Concentrations: a 24-step doses series is applied, each step being 0.75 times the previous step, as follows: 25.00−18.75 . . . 0.04−0.03 ppm • Test combinations:
(§2) A. G. Nass (1957) “Some aspects of the notions additivity, synergism and antagonism in the simultaneous activity of two antibacterial agents in vitro” Arch. intern. Pharmacodynamie 109: 211-228; Steinberg, D. C. (2000) “Measuring synergy” cosmetics & Toiletries 115(11): 59-62; which is calculated as follows for two compounds A and B: […]
(§3) When the SI is equal to 1.0, additivity is indicated. […].

[2] = tested on: Colletotrichum musae MUCL nr2; conditions: MUCLNR2, 336 h
Protocol: as §1, §2, §3

[3] = tested on: Trichoderma viride CBS189.79; conditions: CBS189, 336 h
Protocol: as §1, §2, §3

[4] = tested on: Humicola grisea MG28; conditions: Mycothermus thermophilus, MG28, 336 h, read-out: MIC-values in ppm
Protocol: as §1, §2, §3

[5] = read-out: MIC-values in ppm, Table 1, (I-a) with PEI 1300 (II-a), PDA, 27° C., growth evaluated after two weeks
[6] = read-out: MIC-values in ppm, Table 2, (I-a) with PEI 70000 (II-b), PDA, 27° C., growth evaluated after two weeks

## [O-][n+]1ccccc1S [I-a, sodium pyrithione]
[1]
  MIC: 0.25 µg/mL
[2]; [5]
  MIC: 0.06 µg/mL
[2]; [6]
  MIC: 0.08 µg/mL
[3]; [5]
  MIC: 1.06 µg/mL
[3]; [6]
  MIC: 1.06 µg/mL
[3]; read-out: MIC-values in ppm, Table 3, (I-a) with PEI 750000 (II-c), PDA, 27° C., growth evaluated after two weeks
  MIC: 0.59 µg/mL
[4]
  MIC: 0.45 µg/mL
